Assay results taken from EPA's ToxValDB 9.5.
Values joined by “and” are separate entries in the source; they are usually repeats but may differ in a detail not shown here. Equal values may be shown once.

Tests used:
[1] = tested on: Rattus norvegicus; conditions: subchronic; duration: 13 weeks; oral; gavage; F; Fischer 344; Histopathology: Liver-Granuloma inflammation
[2] = tested on: Rattus norvegicus; conditions: for NOAEL (% diet): short-term, duration: 29 days
[3] = reproduction developmental, inhalation, Wistar
[4] = acute, oral, gavage, Sprague-Dawley
[5] = reproduction developmental, duration: 32 days, oral, gavage, Sprague-Dawley, generation: F0
[6] = reproduction developmental, duration: 41 days, oral, gavage, F, Crj:CD
[7] = reproduction developmental, duration: 41 days, oral, gavage, M, Crj:CD
[8] = reproduction developmental, duration: 10 days, oral, gavage, F, Sprague-Dawley
[9] = subchronic, duration: 13 weeks, oral, diet

`CC(Cl)CCCC(Cl)CCCC(Cl)CCCC(Cl)CCCC(Cl)CCCC(Cl)CCCl` (stereo unspecified) [Chloro C22-26 alkanes] showed an NOEL [1] of under 235 mg/kg-day.

`CC=CC` [2-Butene] gave an LC50 ([2]; acute, inhalation, Wistar) of over 22900 mg/m3, an LOAEL [2, 3] of 11500 mg/m3 and an NOAEL [2, 3] of 5740 mg/m3.

`CCCCCCCCCCCCCl` [1-Chlorododecane] was tested, and the LD50 [2, 4] was over 2000 mg/kg, the LOAEL [2, 5] was 300 mg/kg-day and the NOAEL [2, 5] was 100 mg/kg-day. For the same compound, the LOAEL ([2]; reproduction developmental, duration: 32 days, oral, gavage, Sprague-Dawley, generation: F1) was 1000 mg/kg-day.

`O=C(O)CCC(=O)O` [Butanedioic acid] showed an LD50 ([2]; acute, oral, gavage) of 2260 mg/kg, an LD50 ([2]; acute, oral, gavage, Fischer 344) of over 8000 mg/kg and an LOAEL ([2]; developmental, injection, intramuscular) of 500 mg/kg-day.

Compound `CCCCCCCCCCCCCCCCCC(=O)OCCO` [2-Hydroxyethyl octadecanoate] has an LD50 ([2]; acute, oral, gavage, Wistar) of over 5000 mg/kg.

`Cc1cccc(C#N)c1` [3-Methylbenzonitrile] gave an LD50 ([2]; acute, oral, Sprague-Dawley) of 3000 mg/kg.

In the case of `O=C(O)C1CCC(C(=O)O)CC1` (stereo unspecified) [1,4-Cyclohexanedicarboxylic acid], the LD50 [2, 4] was 2080 mg/kg, the “NOAEL (% diet)” value ([2]; oral, diet, F, Sprague-Dawley) was 1 and the “NOAEL (% diet)” value ([2]; oral, diet, M, Sprague-Dawley) was 1. It also gave an NOAEL ([2]; subchronic, duration: 90 days, oral, gavage, F, Wistar) of 300 mg/kg-day and an NOAEL ([2]; subchronic, duration: 90 days, oral, gavage, M, Wistar) of 300 mg/kg-day.

`CC(C)(C)CC(C)(C)N` [tert-Octylamine] gave an LD50 ([2]; acute, oral, gavage, CRL:CD BR) of 218 mg/kg.

Compound `Cc1cc(S(=O)(=O)[O-])c(N=Nc2c([O-])c(C(=O)O)cc3ccccc23)cc1Cl.[Ba+2]` has an LD50 ([2]; acute, oral, gavage) of at least 5000 mg/kg.

In the case of `COCO` [Methoxymethanol], the LD50 ([2]; acute, oral, gavage, Crj:CD) was 1270 mg/kg, the NOAEL ([2]; developmental, oral, gavage, Crj:CD) was 300 mg/kg-day and the LOAEL [2, 6] was 300 mg/kg-day. It also gave an NOAEL [2, 6] of 60 mg/kg-day, an LOAEL [2, 7] of 60 mg/kg-day and an NOAEL [2, 7] of 12 mg/kg-day. For the same compound, the NOAEL ([2]; reproduction developmental, oral, gavage, Crj:CD) was 300 mg/kg-day, the NOAEL ([2]; reproduction developmental, oral, gavage, F, Crj:CD) was 60 mg/kg-day and the NOAEL ([2]; reproduction developmental, oral, gavage, M, Crj:CD) was 12 mg/kg-day.

With `O=C(OCCOCCOC(=O)c1ccccc1)c1ccccc1` [Diethylene glycol dibenzoate] the NOAEL ([2]; developmental, duration: 38 weeks, oral, diet, Sprague-Dawley) was 3300 ppm, the NOAEL ([2]; reproduction developmental, duration: 38 weeks, oral, diet, F, Sprague-Dawley) was 10000 ppm and the NOAEL ([2]; reproduction developmental, duration: 38 weeks, oral, diet, Sprague-Dawley, generation: F0) was 10000 ppm.

With `CCCCCCCCCCCCOCCCNCCCN` [N1-[3-(Dodecyloxy)propyl]-1,3-propanediamine] the LD50 ([2]; acute, oral, gavage) was 378 mg/kg and 299 mg/kg.

`CC(C)CCCCC(=O)O` [Isooctanoic acid] gave an NOAEL ([2]; developmental, oral, gavage, Sprague-Dawley) of 800 mg/kg-day, an NOAEL ([2]; reproduction developmental, oral, diet, F, Sprague-Dawley) of 7500 ppm and an NOAEL ([2]; reproduction developmental, oral, diet, Sprague-Dawley, generation: F1) of 7500 ppm. For the same compound, the NOAEL ([2]; reproduction developmental, oral, gavage, F, Sprague-Dawley) was 400 mg/kg-day.

In the case of `O[B-](c1ccccc1)(c1ccccc1)c1ccccc1.[Na+]` [Sodium hydroxytriphenylborate], the LD50 [2, 4] was 1240 mg/kg.

Work on `CC1COCc2cc3c(cc21)C(C)(C)C(C)C3(C)C` (stereo unspecified) yielded an LOAEL [2, 8] of 150 mg/kg-day, an NOAEL [2, 8] of 50 mg/kg-day and an NOAEL ([2]; reproduction developmental, duration: 10 days, oral, gavage, Sprague-Dawley, generation: F1) of 150 mg/kg-day. The NOAEL ([2]; reproduction developmental, oral, gavage) was 20 mg/kg-day, the LOAEL [2, 9] was 300 mg/kg-day and the NOAEL [2, 9] was 150 mg/kg-day.

`C=C(C)COc1ccccc1O` [2-[(2-methyl-2-propenyl)oxy]phenol] was tested, and the LD50 [2, 4] was 2840 mg/kg and 2940 mg/kg and 3220 mg/kg and the NOAEL ([2]; reproduction developmental, oral, gavage, Sprague-Dawley) was over 720 mg/kg-day.
